Test results: ChEMBL document CHEMBL3507680, “University of Dundee, Gates Library screen for HepG2 cell viability”

Assay: Human HepG2 cell viability assay in 384 well format
Format: toxicity, cell-based
Set-up: dose 125 nL, time 70.5 hour; concentration not given beside the values
Conditions: HepG2 cells, read-out: Inhibition

Structure (SMILES)	cytotoxicity at 70.5 h
Cc1cnc2c(C(=O)N(C)Cc3cc(C4CC4)[nH]n3)cnn2c1	31.8%
COc1ccc(-c2ccc(C(=O)N3CCOCC3CC(=O)O)o2)cc1 (stereo not given)	-3.78%
CCCN1CCN(Cc2cc(Cl)cc(Cl)c2)[C@H]2CS(=O)(=O)C[C@H]21	10.3%
OC1(CN2CCCCC2)CCN(c2nccc(C(F)(F)F)n2)C1 (stereo not given)	18.4%
CS(=O)(=O)N1C[C@@H]2CC[C@H](C1)N(C(=O)CCn1cnc3ccccc31)C2	18.3%
Cc1cccc2[nH]c(C3CCN(C(=O)c4cccnn4)CC3)nc12	16.6%
Cc1ccc(CN2CCN(C3CCSCC3)CC2CCO)o1 (stereo not given)	-0.539%
Cc1cc(N2CCC(C(=O)O)(n3ccc(C(C)(C)C)n3)CC2)nc(N)n1	0.151%
CNc1ccnc(NCC(=O)Nc2cc(C)ccc2OC)n1	-5.67%
COc1ccccc1OCCCc1cc(C#N)ccn1	6.71%
O=C(O)[C@]12CCCN(Cc3nccs3)[C@@H]1CCN(c1cnccn1)C2	-5.49%
CSc1nccc(N2CCC(NCc3nc(C)cc(C)n3)CC2)n1	1.01%
Cc1nc(CCCN2CCOCC2)n(Cc2ccc(F)cc2)n1	-12.5%
Cn1cc(Cl)c(CN2CCn3nc(C(=O)Nc4ccccc4)cc3C2)n1	32.8%
CCOCCC(=O)N1CCc2cccc(S(=O)(=O)N3CCOCC3)c2C1	-9.19%
COCc1cc(CN(C)C(=O)c2c[nH]nc2-c2cccc(F)c2)n[nH]1	19.4%
C[C@@H]1CN(S(=O)(=O)N2CCCC2)C[C@@]1(O)C1CC1	-4.68%
Cc1cc(C(=O)N2C[C@@H]3[C@@H](CN(C)CCCn4cccn4)[C@@H]3C2)c(C)o1	-0.851%
c1ccc(C(CC2CN(Cc3c[nH]cn3)CCO2)c2ccccc2)cc1 (stereo not given)	-5.4%
Cn1ncc2c(NCCCOc3cccnc3)nc(C3CCCC3)nc21	16.2%
CC[C@H]1CN(C(=O)CCn2c(C)cccc2=O)CC[C@@]1(C)O	-4.82%
CCc1nnsc1C(=O)N1CCCC(COc2ccc(F)cc2)C1 (stereo not given)	-4.43%

Structure (SMILES)	cytotoxicity at 70.5 h
CCNC(=O)[C@@H]1CCCN1C(=O)c1cccc(CCC(C)(C)O)c1	-7.73%
COCCN(Cc1cnn(C)c1)CC1CCN(C(C)C)CC1	-1.39%
CN(CCc1ccccn1)[C@@H]1CCN(c2cc(C(N)=O)ccn2)C[C@H]1O	-3.34%
COc1ccc(-n2ncc(C(C)NC3CCOCC3)c2C)cc1 (stereo not given)	-1.36%
Cc1nc(NCCC23CCCN2CCC3)cc(C2CCNCC2)n1	-7.1%
CCn1nc(C)c(CCNC(=O)c2coc(CN3CCOCC3)c2)c1C	0.862%
OC(CNc1ncnc2c1CCNCC2)C(F)(F)F (stereo not given)	-4.22%
Cc1ccccc1N1CCCN(C(=O)c2cn(C)c3ccccc23)CC1	-8.98%
CCc1cc(NCCCOC2CCCC2)ncn1	-10.7%
COc1cc2c(cc1CN1CCCCC1CN1CCOCC1)CCC2 (stereo not given)	1.06%
COCCN(C)CC(=O)N1CCCC2(CCC(=O)N(CC3CC3)C2)C1 (stereo not given)	-27.5%
Cc1nccn1CCCC(=O)N1CCN(c2cccnc2)CC1	4.06%
NC(=O)CCn1cc(CNCCCc2ccccc2O)c2ccccc21	8.33%
CCc1c(C)nn(C)c1NC(=O)N1CCCOC(Cn2cccn2)C1 (stereo not given)	-4.64%
CC(C)Cc1nc(CCn2ccc(=O)[nH]c2=O)n(-c2ccccn2)n1	11.3%
Cn1nccc1CCNC(=O)[C@H]1CNC[C@H](C(=O)N2CCCC2)C1	0.341%
Cc1ncc(CC(=O)N2CCC(N3C[C@@H](C)O[C@@H](C)C3)CC2)c(=O)[nH]1	9.33%
O=C(NC1CC1)c1cn(C2CCN(c3cc(C4CC4)ncn3)CC2)nn1	30%
COCc1noc(Cn2ccc3ncccc3c2=O)n1	-7.25%
COc1ccc2cc(C3CN(C(=O)N(C)C)CCO3)ccc2c1 (stereo not given)	26.1%
Cc1cc(-n2cccn2)ccc1CN1C[C@@H](CN(C)C)[C@@H](CO)C1	-8.41%
Cc1ccnc(NCCCN2CCc3ccccc32)n1	-2.9%

Structure (SMILES)	cytotoxicity at 70.5 h
CSCCCN1CCCC(Cn2ccnc2)C1 (stereo not given)	-11.5%
Cc1ccncc1C(=O)N1CCCC(C(=O)CCc2ccccc2)C1 (stereo not given)	-7.97%
Cc1c(Cl)c(C(=O)N2CC[C@H](N3CCOCC3)[C@H](CCCO)C2)nn1C	3.03%
CN1CCCC2(CC1)CCN(C(=O)CCc1ccccc1O)CC2	6.16%
Cc1cnn(C2(C(=O)O)CCN(Cc3oc4ccccc4c3C)CC2)c1	-8.33%
CC(C)N1CC(C(=O)NCCc2csc(-c3ccncc3)n2)CC1=O (stereo not given)	34.8%
CNC(=O)CC1CCN(Cc2nc(-c3ccc(SC)cc3)oc2C)CC1	-6.83%
CN(C)C(=O)CN1C[C@@H]2CC[C@H](C1)N(Cc1cc(F)ccc1F)C2	7.45%
CSc1nccc(N2CCN(C)C3(CCNC(=O)CC3)C2)n1 (stereo not given)	-5.4%
CCCn1nc(C)c(CNC(=O)C2COc3c(cccc3OC)C2)c1C (stereo not given)	-10.5%
COc1cccc([C@@H]2CCN(Cc3ccc4ccccc4n3)C[C@H]2O)c1	-8.06%
Cc1nccn1CCC1CCCCN1C(=O)c1ccc2[nH]nnc2c1 (stereo not given)	-1.82%
COCCNS(=O)(=O)c1cccc2c1CN(C(=O)c1ccccc1)CC2	14.6%
CC(C)CN1CCN(Cc2nc3ccccc3[nH]2)[C@H]2CS(=O)(=O)C[C@H]21	-11.1%
CC(c1ccccc1)n1c(SCC(=O)O)nnc1-c1ccccc1Cl (stereo not given)	-4%
CC(C)C(=O)NCC(=O)N(C)C1CCCN(C2Cc3ccccc3C2)C1 (stereo not given)	-10.4%
CCS(=O)(=O)N1CCC(c2nnc(CN3CCCC3)n2C2CC2)CC1	-11.4%
Cc1ccccc1C(=O)N1CCOC2(CNCCOC2)C1 (stereo not given)	-4.46%
O=C(CCCc1ccc(F)cc1)N1C[C@@H](CN2CCOCC2)[C@@H](CO)C1	-2.56%
Cc1cc(-c2nn(C)c(Cl)c2CN2CCOCC(O)C2)no1 (stereo not given)	-11.6%
CN(CC1(O)CCCN(CCC2CCCCC2)C1=O)C1CCOCC1 (stereo not given)	-5.64%
COc1cccn(CC(=O)N(C)Cc2ccoc2)c1=O	1.59%

Structure (SMILES)	cytotoxicity at 70.5 h
CC(CN1CCC2(CC1)c1nc[nH]c1CCN2S(C)(=O)=O)C(F)(F)F (stereo not given)	-1.86%
CCOCCOc1ccccc1C(=O)N1CCCC(c2ncc[nH]2)C1 (stereo not given)	-5%
O=C(c1cccnc1)N1C[C@@H]2CC[C@H](C1)N(Cc1cccc(Cl)c1F)C2	-1.34%
COCCN(C)CCN1CC2(CCN(C3CCCOC3)CC2)OC1=O (stereo not given)	3.4%
Cc1ccc2c(c1)c(CNC(=O)C1CCN(C(C)C)CC1)nn2C	-14.4%
CN1CC(c2ccccc2)CC12CCN(C(=O)c1cncc(Cl)c1)CC2 (stereo not given)	-8.59%
CCn1cc(CN2CCC(c3nnc(CN(C)C)n3CC)CC2)cn1	10.9%
COCCN1CCCC(c2nc3c([nH]2)CC(C)(C)CNC3=O)C1 (stereo not given)	-3%
Cc1nonc1CN(C)CC1(O)CCCN(CCC2CCCCC2)C1=O (stereo not given)	2.77%
CN(C)C(=O)N1CCN(C(=O)CCc2ccccc2)[C@H]2CS(=O)(=O)C[C@H]21	-5.59%
CSCCNC(=O)c1ccc(OC2CCN(CC(C)(C)C)CC2)c(Cl)c1	-7.8%
Cc1cc(C)nc(CCNC(=O)C(c2ccc(F)cc2)N(C)C)n1 (stereo not given)	30.5%
CN(C)C(=O)CCCNC(=O)C(c1cccc(F)c1)N(C)C (stereo not given)	3.05%
Cc1cc(-c2nn(C)c(Cl)c2CN2Cc3ccccc3C(O)C2)no1 (stereo not given)	-11.3%
COc1cccc2c1OCC(C(=O)N(C)CCCc1cnn(C)c1)C2 (stereo not given)	-1.77%
O=C(c1cccnc1)N1C[C@@H]2CC[C@H](C1)N(Cc1cc(F)ccc1F)C2	-5.88%
CC(C)c1cc(N2CCN(c3ccc(O)cc3)CC2)n2nccc2n1	-11.5%
CCNC(=O)CCN1CCC(c2cc(N3CCOCC3)nc(C)n2)CC1	-7.37%
COc1cccc2c1OCC(CNC(=O)CNC(N)=O)C2 (stereo not given)	-4.9%
COc1nc(C)c(C(=O)N(C)Cc2nc(-c3ccccn3)no2)s1	5.05%
O=C(c1ccccn1)N1CCCC(c2nccn2CC2CCC2)C1 (stereo not given)	18.9%
CCCC(C)CN1CCC(n2cc(CCCO)nn2)CC1 (stereo not given)	-4.4%

Structure (SMILES)	cytotoxicity at 70.5 h
CCOCCn1c(=O)[nH]c2cc(C(=O)N(C)CCc3cn[nH]c3)ccc21	18.1%
CC(C)n1ccnc1C1CCN(C(=O)C2COc3ccccc3O2)CC1 (stereo not given)	-9.98%
Cc1nnsc1C(=O)N1CCC2(CC1)c1nc[nH]c1CCN2CC(C)C	-2.79%
c1ccc(OCC2CC2)c(CNC2CCc3ncnn3C2)c1 (stereo not given)	-7.19%
c1cncc(COc2ccccc2CNC2CCc3ncnn3C2)c1 (stereo not given)	-5.98%
COc1cc(C)nc(N2CCN(C(=O)CN(C)C(C)C)CC2)n1	29%
NC(=O)c1cccc(CN2CCc3c(ncn3C3CC3)C2)c1	23.7%
CN(Cc1noc(C2CC2)n1)C1CCN(Cc2cccc(F)c2F)C1 (stereo not given)	15.9%
CN(Cc1cccnc1)C1CCCN(Cc2noc(C3CC3)n2)C1 (stereo not given)	24.6%
CCCc1cc(C(=O)NCCN2CCCS2(=O)=O)[nH]n1	-7.48%
Cc1ccc(-c2cc(C(=O)NCCN3CCCS3(=O)=O)[nH]n2)o1	-14.9%
OCCN1CCC(CNCc2ccccc2OC(F)(F)F)CC1	-7.57%
COc1cc(C)nc(N2CCN(C(=O)CSC)CC2)n1	-11.8%
O=C1C(NCc2nnc3n2CCCC3)CCN1c1ccccc1Cl (stereo not given)	9.28%
O=C(NCc1nn(-c2ccccc2)c2c1CCC2)N1CCCC(O)C1 (stereo not given)	-12.1%
O=C(NCc1nn(-c2ccccc2)c2c1CCC2)NC1CCC(O)CC1 (stereo not given)	-8.01%
NC(=O)NCCC(=O)NCc1nn(-c2ccccc2)c2c1CCC2	-16.4%
Cc1noc(C)c1CNC(=O)N1CCC(Cc2cnn(C)c2)C1 (stereo not given)	-3.98%
CC(O)CN1CCC(CNCc2cccc(OC(F)(F)F)c2)CC1 (stereo not given)	5.77%
CCOc1ccccc1CNCC1CCN(CC(C)O)CC1 (stereo not given)	-1.15%
O=C(NCc1cc[nH]n1)NCC(c1ccccc1)N1CCOCC1 (stereo not given)	8.77%
Cc1cnn(CC2CCCCN2Cc2cc(C)no2)c1 (stereo not given)	-8.3%
